Peptide text beside a SMILES is read from it.

Data set [1] is described as follows: Oral pharmacokinetics after single oral dose. The class given is in vivo, Brown-Norway rats. The following applies: single oral dose of 10 mg peptide, gavage. The protocol:
(§1) For all oral experiments, administration via gavage began between 8:30-8:50 am with a 3-minute delay between each rat. Animals used for pharmacokinetic studies were fasted for 4 hrs before starting gavage at 1 pm with a 3-minute delay between each rat.
For oral pharmacokinetic experiments, jugular blood samples were collected following a single oral dose of 10 mg peptide in 1 ml of vehicle after 5, 15, 30, 45, 60, 90, and 120 minutes. Protein inhibitor cocktail (ROCHE, cOmplete protein inhibitors, Cat #11697498001), which was added into the EDTA collection tubes, was used for KVSQ and RVTQ peptides. Plasma was immediately extracted, and 100 μL of plasma were crashed with 300 μL of 100% methanol, spun at 14 000 RPM for 10 min, and the supernatant harvested. Re-extraction of the precipitant and solubilization of the pellet were as described above.
The analytical instrumentation consisted of a Thermo-Scientific ISQ Quantiva Triple Quadrupole Mass Spectrometer (QQQ), incorporating a heated electrospray ionization (HESI) source, and a Thermo-Scientific UltiMate™ 3000 UHPLC system (including, UltiMate™ 3000 RS autosampler). Analytical conditions were developed using a reference standard in a solution containing 5 μM of the corresponding peptide. The chromatography was resolved by isocratic elution of a binary solvent system incorporating (A) 0.1% Formic Acid (aq) and (B) ACN+0.1% FA and using an Agilent Eclipse Plus™ C18 analytical column (100 mm×2.1 mm ID, 1.8 μm particle). A 5 μL injection volume and solvent flow rate of 150 μL/min were used. The MS/MS acquisition time was 7 min and total run time was 8.3 min/injection. The triple Quadrupole MS/MS instrumentation conditions were as follows: the HESI source voltage was 3200 V, the sheath gas […], auxiliary gas 20 L/min, sweep gas 2.0 L/min, the ion transfer temperature was 350° C., the vaporizer temperature was 350° C., the CID gas was 1.5 (mTorr) and the dwell time was 100 msec. The Q1 Resolution (FWHM) was 0.4 (unitless) and the Q3 resolution (FWHM) was 0.7 (unitless). […]

Data set [2] relates to plasma testosterone level in Brown-Norway rats. Briefly: Subcutaneous osmotic pump infusion of TV159-172 derivatives and N163-166, plasma testosterone (Example II). It counts as in vivo. The note with it: 309 ng/kg/day, 7 days after implantation. The procedure:
(§2) Animal handling, serum, plasma, and intratesticular sample collection. Brown-Norway rats aged 36-42 days old were purchased from Charles River and aged until ˜60 days old. Rats were kept on a 12 L/12 D day cycle with lights on at 7 AM and had access to food and water ad libitum.
(§3) Jugular samples were collected via percutaneous puncture and samples were collected in EDTA coated tubes (plasma) and centrifuged at 1,300 RCF for 10 min and stored in 2 mL Wheaton glass vials (Fisher Scientific, Hampton, NH, Cat #03 337 21A) and kept at −20° C. Animals were handled according to protocols approved by the McGill University Animal Care and Use Committee, which included standard operating procedures for the amount and frequency of blood sample collections.
(§4) Hormone measurements. Testosterone levels were measured using Cayman (Ann Arbor, MI) EIA kit Cat #582701 and corticosterone levels were measured using Cayman EIA kit Cat #501320. Plasma fluid samples were diluted until controls fitted the middle of the standard curve used.
(§5) Osmotic pumps. Alzet 2006 osmotic pumps were purchased from Alzet (Cupertino, CA) with an infusion rate of 0.15 μL/hr. The peptide concentration loaded into the pumps accounted for weight gain at the time of collection and was adjusted to deliver the doses indicated in each figure. The pump infusion rates varied by production lot and were adjusted accordingly. […]

Data set [3] shares this test system. In words: Subcutaneous osmotic pump infusion of tetrapeptides, plasma testosterone (Example I). It counts as in vivo. The following applies: 377 ng/kg/d, ~54 day-old rats, vs water. The procedure: Osmotic pumps. Model 2006 osmotic pumps, infusing 0.15 μL/hr, were purchased from Alzet (Cupertino, CA). The peptide concentration loaded into the pumps was adjusted to deliver the doses indicated in each figure. The pump infusion rates varied by production lot and were adjusted accordingly. Pumps were loaded 24 hrs prior to surgical implantation under sterile conditions and were kept at 37° C. in PBS.
(§6) Animal handling, blood collections, surgical procedures, and oral administration of peptides. Brown-Norway rats aged 22-28, 36-42, or 50-56 days-old were purchased from Charles River Laboratories (Senneville, Quebec) and aged until needed. Rats were kept on a 12 L/12 D day cycle with lights on at 7 AM and access to food and water ad libitum.
(§7) For all experiments, plasma samples were obtained via percutaneous jugular puncture and collected in EDTA KE/1.3 tubes (Sarstedt, Numbrecht, Germany, Cat #5072511). Blood collection time points are indicated in each figure legend. Samples were centrifuged at 1 300 RCF for 10 min, and the plasma was stored in 2 mL Wheaton glass vials (Fisher Scientific, Hampton, NH, Cat #03 337 21A) and kept at −20° C. until needed.
Brown-Norway rats aged ˜29 day-old were implanted with osmotic infusion pumps in the interscapular region under general anesthesia with isoflurane following antisepsis using iodine. The surgical wound was closed with two to three staples that were removed a week after the surgery. Subcutaneous carprofen (Zoetis, Parsippany, NJ) was given before the surgical procedure and in the following two days for pain management.
(§8) Plasma steroid measurements. Testosterone levels were measured using Cayman (Ann Arbor, MI) EIA kit Cat #582701, and corticosterone levels were measured using Cayman EIA kit Cat #501320. All samples were measured in duplicate according to the manufacturer's instructions. Samples were diluted until the average control levels fitted the middle of the standard curve. The number of animals used for each experiment is noted in the corresponding figure legend.

Data set [4] relates to plasma corticosterone level in Brown-Norway rats. In words: Subcutaneous osmotic pump infusion of TV159-172 derivatives and N163-166, plasma corticosterone (Example II). The note with it: 40 days after implantation. The class given is in vivo. The protocol:
as §2, §3, §4, §5

The subject of data set [5] is plasma testosterone level in Brown-Norway rats. In words: Oral administration (gavage) of peptides, plasma testosterone. The note with it: oral gavage ~580 μg/kg, 3 hrs sampling time. It counts as in vivo. The procedure:
Peptides. Peptides were obtained from CanPeptide (Montreal, Quebec) with >95% purity. All peptides were dissolved in molecular grade, sterile double distilled water to obtain a 1 mM stock solution and stored at −20° C. Peptides used for oral screenings were prepared from 1 mM peptide stock and diluted in sterile tap water in a total volume of 1 mL. Peptides used for pharmacokinetic experiments were diluted at 10 mg/ml using sterile tap water. Some of the peptides were chemically modified after synthesis. The following table summarizes the peptides that have been tested:
as §6, §7, §1, §8

Data set [6] can be described thus: Peptide stability in plasma. The class given is in vitro ADME, Brown-Norway rats. The protocol:
Peptide stability in plasma, oral pharmacokinetics, and quantification. For peptide stability experiments, plasma from Brown-Norway rats age 90-140 days was collected and stored at −20° C. until further use. The plasma was thawed, spun at 12 000 RPM for 10 min, and kept at 4° C. 4 μM of the various peptides were incubated with 100 μL of plasma that was warmed at 37° C. for 10 min before use. After 1, 15, 30, 60, 90 or 120 minutes, the plasma/peptide samples were crashed with 300 μL of 100% methanol, spun at 14 000 RPM for 10 min, and the supernatant collected. The methanol in the supernatant was evaporated and the samples were re-extracted. The final pellet was solubilized in 5 μL methanol followed by the addition of 100 μL of sterile double distilled water. The extracted samples were transferred to plastic tubes and placed in the autoloader of the mass spectrometer.
The analytical instrumentation consisted of a Thermo-Scientific ISQ Quantiva Triple Quadrupole Mass Spectrometer (QQQ), incorporating a heated electrospray ionization (HESI) source, and a Thermo-Scientific UltiMate™ 3000 UHPLC system (including, UltiMate™ 3000 RS autosampler). Analytical conditions were developed using a reference standard in a solution containing 5 μM of the corresponding peptide. The chromatography was resolved by isocratic elution of a binary solvent system incorporating (A) 0.1% Formic Acid (aq) and (B) ACN+0.1% FA and using an Agilent Eclipse Plus™ C18 analytical column (100 mm×2.1 mm ID, 1.8 μm particle). A 5 μL injection volume and solvent flow rate of 150 μL/min were used. The MS/MS acquisition time was 7 min and total run time was 8.3 min/injection. The triple Quadrupole MS/MS instrumentation conditions were as follows: the HESI source voltage was 3200 V, the sheath gas […], auxiliary gas 20 L/min, sweep gas 2.0 L/min, the ion transfer temperature was 350° C., the vaporizer temperature was 350° C., the CID gas was 1.5 (mTorr) and the dwell time was 100 msec. The Q1 Resolution (FWHM) was 0.4 (unitless) and the Q3 resolution (FWHM) was 0.7 (unitless). The instrument ran in a selected reaction monitoring (SRM), positive ion detection mode at various collision energies (CE) for the following mass transitions: • Ac-RITQdS-NH2: p84 (m/z 645→m/z 295, m/z 396) • RdVTQ: p72 (m/z 503→m/z 211). • Ac-RdITQ-NH2: p87 (m/z 558→m/z 391, m/z 267) • RVTQ: p64 (m/z 503→m/z 211; m/z 503→m/z 357 and m/z 503→m/z 256) • KVSQ: p95 (m/z 461→m/z 129) and (m/z 461→m/z 234)

As for `CC(C)[C@H](NC(=O)[C@@H](N)CCCNC(=N)N)C(=O)N[C@H](C(=O)N[C@@H](CCC(N)=O)C(=O)O)[C@@H](C)O` [RVTQ] (H-RVTQ-OH), in data set [1], the “circulating peptide levels (detection)” value was “not detected”. For the same compound, the testosterone levels result is listed as “significantly increased” in data set [2] and “did not show an effect” in data set [5]. Besides, the “increase in plasma testosterone levels” value in data set [3] was “two-fold”. Moreover, the results for the corticosterone levels result in data set [4] (23 ng/kg/day) and in data set [4] (treatment inducing testosterone formation (309 ng/kg/day)) were “decreased” and “not affected”, respectively. Moreover, in data set [6] (4 μM peptide (KVSQ 12.5 μM) in 100 μL rat plasma, 37° C., 1-120 minutes), the “half-life in plasma (rank order)” value is on record as “Ac-RITQdS-NH2>RdVTQ>Ac-RdITQ-NH2>RITQ>RVTQ>KVSQ”. Further, the “stability / degradation in plasma” value in data set [6] (in vitro rat plasma incubation) was “rapid time-dependent degradation”.

Values taken from US12324839B2, “Testosterone-inducing peptide compounds and associated combinations” (THE ROYAL INSTITUTION FOR THE ADVANCEMENT OF …, priority 2018, dated 2025).
